Article PMC5976936 (2018)

Assays:
[1] = test system: G4mod1 (DNA, G4, 5-hydroxymethylcytosine at 7) CCGGGGCGGGCCGGGGGCGGGGTC; assay: ECD thermal melting; conditions: KCl concentration not stated for this experiment; 50 mM Tris-HCl pH 7.4; 10 µM TMPyP4, 5 µM DNA
[2] = test system: G4_1-4 (DNA, G4) CCGGGGCGGGCCGGGGGCGGGGTC; assay: ECD thermal melting; conditions: KCl concentration not stated for this experiment; 50 mM Tris-HCl pH 7.4; 10 µM TMPyP4, 5 µM DNA

- ΔTM [1]: 12 °C
- ΔTM [2]: 12 °C
Compound: C[n+]1ccc(-c2c3nc(c(-c4cc[n+](C)cc4)c4ccc([nH]4)c(-c4cc[n+](C)cc4)c4nc(c(-c5cc[n+](C)cc5)c5ccc2[nH]5)C=C4)C=C3)cc1
